Experimental data reported in patent US5043326A, “Inclusion complex of 7-isopropoxy-isoflavon formed with cyclodextrin, the preparation thereof and pharmaceutical compositions containing these compounds as active ingredients” (priority 1985, dated 1991).
≈ marks a conversion by molar mass, not a printed value.

Key:
[1] = Solubility of Ipriflavon in aqueous cyclodextrin solutions (4 days agitation, 25° C., photometric); format: physicochemical
Procedure: One of the evidence of the formation of inclusion complex between Ipriflavon and cyclodextrin is that the cyclodextrin increases the solubility of Ipriflavon in aqueous solutions. In order to determine this property, 10 mg of Ipriflavon, cyclodextrin in different amounts and 5 ml of distilled water were charged into 10 ml test tubes. After closing, the tubes were agitated for 4 days at 25° C. at 325 rpm, thereafter the samples were filtered on a G4 glass-filter and the filtrates were photometrically analysed in 50% aqueous ethanol solution.

physchem = format: physicochemical; settings: for Concentration of dissolved Ipriflavon: 37° C.
Procedure: To carry out the dissolution tests 250 ml of distilled water were charged into a 500 ml flask and heated to 37° C. Thereafter the product in an amount corresponding to 50 mg of active ingredient was added then the suspension thus obtained was stirred at 1000 rpm using a magnetic stirrer. At fixed intervals 2-6 ml of samples were taken and filtered on glass-filter and after diluting, the filtrates were measured photometrically in an 1:1 mixture of water:ethanol.

[2] = Resorption test in rats: plasma level of unchanged Ipriflavon (HPLC); format: in vivo, CFY male rats; settings: rat
Procedure: (§1) To the resorption tests CFY male rats weighing 170-200 g were used. After a 16-hour fasting period, Ipriflavon in a dose of 25 mg/kg (group A), Ipriflavon-β-cyclodextrin inclusion complex prepared according to Example 1 (group B) and Ipriflavon-β-cyclodextrin mixture (group C)--both containing the β-cyclodextrin in equimolar ratio to the active ingredient--were administered, thereafter rat-food and water were given "ad libitum" to the animals.
(§2) The materials to be tested were mixed for 5 minutes in 2 ml of 1% methylcellulose solution and administered by the aid of a stomach tube. The plasma samples were collected 10, 30 minutes and 1, 2 and 4 hours after the treatment using mortal haemorrhage after transecting the Vena femoralis of the animals anasthesied with ether. The blood samples were charged into heparinized tubes, centrifuged, nutsch-filtered and stored deep-freezed, in vial until further use.
In order to collect urinary samples, after treatment the animals were placed into individual metabolism vessel and urine and faeces were separately collected for 24 hours. The urinary samples were stored deep-freezed until further use. The concentration of the unchanged Ipriflavon and its main metabolite (7-hydroxy-isoflavon) in the urinary and the plasma samples was followed by HPLC.
To carry out the HPLC, liquid chromatography of typ RP-18 and LiChrosorb reverse phase column (grain size in case of plasma sample: 10 μm and in case of urinary samples: 5 μm) were used. Flow velocity of eluent: 1.5 ml/min, wave length of UV detector: 254 nm, paper-velocity: 0.2 cm/min.
In case of plasma samples a mixture of 0.05M acetate buffer (pH=3):acetonitrile=60:40 and in case of urinary samples a mixture of acetate buffer:acetonitril=55:45 were used as eluent. The internal standard was ethanolic solution of 2-methyl-7-methoxy-4'-nitro-isoflavon (100 μg/ml) and to the calibration, solutions comprising 100 μg/ml and 10 μg/ml of 7-hydroxy-isoflavon in methanol were used.
To analyse the plasma samples, to 1 ml of plasma 1 ml acetate-buffer (pH=5) and β-glucuronidase (arylsulfonase) enzyme (100 FU) diluted to 10-fold with 10 μl of distilled water were added and incubated at 37° C. for 24 hours. After incubation, 50 μl of 2N NaOH were added and the mixture was extracted with benzene and centrifuged. The organic phase was separated, the aqueous phase was made acidic with […] of 1N HCl, and after adding 50 μl of internal standard solution it was repeatedly extracted with 8 ml benzene. The organic phase was centrifuged,evaporated, the residue was dissolved in 100 μl of eluent and 50 μl of this solution were injected and measured.
Equation of the calibration curve: y=8.2x-0.08; correlation coefficient: 0.9999.
In Table IV the concentration values of unchanged Ipriflavon and in Table V the concentration values of the main metabolite determined in the blood of animals are shown. To group A Ipriflavon per se, to group B the inclusion complex according to the invention and to group C the mixture of Ipriflavon and β-cyclodextrin were administered.

[3] = set-up: species or system CFY male rats; settings: rat, in vivo, po
Procedure: as §1
The materials to be tested were mixed for 5 minutes in 2 ml of 1% methylcellulose solution and administered by the aid of a stomach tube. The plasma samples were collected 10, 30 minutes and 1, 2 and 4 hours after the treatment using mortal haemorrhage after transecting the Vena femoralis of the animals anasthesied with ether. […]
To analyse the plasma samples, to 1 ml of plasma 1 ml acetate-buffer (pH=5) and β-glucuronidase (arylsulfonase) enzyme (100 FU) diluted to 10-fold with 10 μl of distilled water were added and incubated at 37° C. for 24 hours. […] The organic phase was centrifuged,evaporated, the residue was dissolved in 100 μl of eluent and 50 μl of this solution were injected and measured. […]
In Table IV the concentration values of unchanged Ipriflavon and in Table V the concentration values of the main metabolite determined in the blood of animals are shown. […]

[4] = Resorption test in rats: plasma level of unchanged Ipriflavon (HPLC); set-up: species or system CFY male rats; settings: rat, in vivo, po, 25 mg/kg, 1440 min
[5] = set-up: species or system CFY male rats; settings: rat, in vivo, po, 25 mg/kg, 1440 min
[6] = cited from earlier work
[7] = cited from earlier work; remark: listed apart in the source
[8] = cited from earlier work; remark: listed apart in the source
[9] = Urinary excretion in rats, 24 h (HPLC); format: in vivo, CFY male rats; settings: rat urine
Procedure: as §1, §2
In order to collect urinary samples, after treatment the animals were placed into individual metabolism vessel and urine and faeces were separately collected for 24 hours. The urinary samples were stored deep-freezed until further use. The concentration of the unchanged Ipriflavon and its main metabolite (7-hydroxy-isoflavon) in the urinary and the plasma samples was followed by HPLC. […]

[10] = in vivo, po, 25 mg/kg, Plasma-level of unchanged Ipriflavon

## CC(C)Oc1ccc2c(=O)c(-c3ccccc3)coc2c1 [Ipriflavon, 7-isopropoxy-isoflavon]
[1]; 12% aqueous alpha-cyclodextrin, solubility of Ipriflavon in α-cyclodextrin solution
  solubility at 96 h: 20 to 22 µg/mL (≈ 71.3 to 78.5 µM)
[1]; 15% DIMEB
  increase of solubility in DIMEB: 1770 -fold
[1]; 15% TRIMEB
  increase of solubility in TRIMEB: 300 -fold
[1]; 15% aqueous dimeb, solubility in DIMEB solution
  solubility at 96 h: 1700 to 2000 µg/mL (≈ 6060 to 7130 µM)
[1]; 15% aqueous trimeb, solubility in TRIMEB solution
  solubility at 96 h: 440 µg/mL (≈ 1570 µM)
[1]; aqueous α-cd 11 mg/ml, Solubility of Ipriflavon
  solubility at 96 h: 4.12 µg/mL (≈ 14.7 µM)
[1]; aqueous α-cd 13 mg/ml, Solubility of Ipriflavon
  solubility at 96 h: 4.68 µg/mL (≈ 16.7 µM)
[1]; aqueous α-cd 15 mg/ml, Solubility of Ipriflavon
  solubility at 96 h: 5.08 µg/mL (≈ 18.1 µM)
[1]; aqueous α-cd 20 mg/ml, Solubility of Ipriflavon
  solubility at 96 h: 6.1 µg/mL (≈ 21.8 µM)
[1]; aqueous α-cd 30 mg/ml, Solubility of Ipriflavon
  solubility at 96 h: 8.19 µg/mL (≈ 29.2 µM)
[1]; aqueous α-cd 40 mg/ml, Solubility of Ipriflavon
  solubility at 96 h: 9.63 µg/mL (≈ 34.4 µM)
[1]; aqueous α-cd 50 mg/ml, Solubility of Ipriflavon
  solubility at 96 h: 10.6 µg/mL (≈ 37.8 µM)
[1]; aqueous α-cd 70 mg/ml, Solubility of Ipriflavon
  solubility at 96 h: 14.8 µg/mL (≈ 52.7 µM)
[1]; aqueous α-cd 90 mg/ml, Solubility of Ipriflavon
  solubility at 96 h: 18.2 µg/mL (≈ 65.1 µM)
[1]; aqueous α-cd 100 mg/ml, Solubility of Ipriflavon
  solubility at 96 h: 21.6 µg/mL (≈ 77.2 µM)
[1]; aqueous α-cd 110 mg/ml, Solubility of Ipriflavon
  solubility at 96 h: 19 µg/mL (≈ 67.9 µM)
[1]; aqueous α-cd 120 mg/ml, Solubility of Ipriflavon
  solubility at 96 h: 23.6 µg/mL (≈ 84.4 µM)
[1]; aqueous β-cd 1 mg/ml, Solubility of Ipriflavon
  solubility at 96 h: 2.52 µg/mL (≈ 8.99 µM)
[1]; aqueous β-cd 3 mg/ml, Solubility of Ipriflavon
  solubility at 96 h: 7.03 µg/mL (≈ 25.1 µM)
[1]; aqueous β-cd 5 mg/ml, Solubility of Ipriflavon
  solubility at 96 h: 11.4 µg/mL (≈ 40.8 µM)
[1]; aqueous β-cd 7 mg/ml, Solubility of Ipriflavon
  solubility at 96 h: 15.9 µg/mL (≈ 56.8 µM)
[1]; aqueous β-cd 9 mg/ml, Solubility of Ipriflavon
  solubility at 96 h: 19.5 µg/mL (≈ 69.6 µM)
[1]; aqueous β-cd 11 mg/ml, Solubility of Ipriflavon
  solubility at 96 h: 15.2 µg/mL (≈ 54.3 µM)
[1]; aqueous β-cd 13 mg/ml, Solubility of Ipriflavon
  solubility at 96 h: 15.5 µg/mL (≈ 55.2 µM)
[1]; aqueous β-cd 15 mg/ml, Solubility of Ipriflavon
  solubility at 96 h: 15.8 µg/mL (≈ 56.2 µM)
[1]; aqueous β-cd 20 mg/ml, Solubility of Ipriflavon
  solubility at 96 h: 13.5 µg/mL (≈ 48 µM)
[1]; aqueous β-cd 30 mg/ml, Solubility of Ipriflavon
  solubility at 96 h: 7.59 µg/mL (≈ 27.1 µM)
[1]; aqueous β-cd 40 mg/ml, Solubility of Ipriflavon
  solubility at 96 h: 6.2 µg/mL (≈ 22.1 µM)
[1]; aqueous β-cd 50 mg/ml, Solubility of Ipriflavon
  solubility at 96 h: 5.44 µg/mL (≈ 19.4 µM)
[1]; aqueous β-cd 70 mg/ml, Solubility of Ipriflavon
  solubility at 96 h: 6.08 µg/mL (≈ 21.7 µM)
[1]; aqueous β-cd 90 mg/ml, Solubility of Ipriflavon
  solubility at 96 h: 6.93 µg/mL (≈ 24.7 µM)
[1]; aqueous β-cd 100 mg/ml, Solubility of Ipriflavon
  solubility at 96 h: 6.64 µg/mL (≈ 23.7 µM)
[1]; aqueous β-cd 110 mg/ml, Solubility of Ipriflavon
  solubility at 96 h: 5.98 µg/mL (≈ 21.3 µM)
[1]; aqueous β-cd 120 mg/ml, Solubility of Ipriflavon
  solubility at 96 h: 5.66 µg/mL (≈ 20.2 µM)
[1]; aqueous γ-cd 11 mg/ml, Solubility of Ipriflavon
  solubility at 96 h: 2.02 µg/mL (≈ 7.21 µM)
[1]; aqueous γ-cd 13 mg/ml, Solubility of Ipriflavon
  solubility at 96 h: 2.05 µg/mL (≈ 7.31 µM)
[1]; aqueous γ-cd 15 mg/ml, Solubility of Ipriflavon
  solubility at 96 h: 2.16 µg/mL (≈ 7.71 µM)
[1]; aqueous γ-cd 20 mg/ml, Solubility of Ipriflavon
  solubility at 96 h: 2.38 µg/mL (≈ 8.49 µM)
[1]; aqueous γ-cd 30 mg/ml, Solubility of Ipriflavon
  solubility at 96 h: 2.74 µg/mL (≈ 9.77 µM)
[1]; aqueous γ-cd solution, Solubility of Ipriflavon
  solubility at 96 h: 3.26 µg/mL (≈ 11.6 µM)
[1]; beta-cyclodextrin solution, constant solubility value (solubility limit of the solid inclusion complex in excess Ipriflavon)
  solubility at 96 h: 6 µg/mL (≈ 21.4 µM)
[1]; beta-cyclodextrin solution, solubility of Ipriflavon in β-cyclodextrin solution
  solubility at 96 h: 16 to 20 µg/mL (≈ 57.1 to 71.3 µM)
[1]; distilled water, water, solubility of Ipriflavon in distilled water
  solubility at 96 h: 1 to 2 µg/mL (≈ 3.57 to 7.13 µM)
[1]; β-cyclodextrin, depending on concentration
  increase of solubility in β-cyclodextrin solution vs distilled water: ≤ 15 -fold
[1]; γ-cyclodextrin
  increase of solubility in γ-cyclodextrin solution: 3 -fold
physchem; 1 min, distilled water
  Concentration of dissolved Ipriflavon: 435 ng/mL
physchem; 2 min, distilled water
  Concentration of dissolved Ipriflavon: 327 ng/mL
physchem; 3 min, distilled water
  Concentration of dissolved Ipriflavon: 401 ng/mL
physchem; 5 min, distilled water
  Concentration of dissolved Ipriflavon: 507 ng/mL
physchem; 10 min, distilled water
  Concentration of dissolved Ipriflavon: 882 ng/mL
physchem; 15 min, distilled water
  Concentration of dissolved Ipriflavon: 1123 ng/mL
physchem; 20 min, distilled water
  Concentration of dissolved Ipriflavon: 1197 ng/mL
physchem; 30 min, distilled water
  Concentration of dissolved Ipriflavon: 1423 ng/mL
physchem; 40 min, distilled water
  Concentration of dissolved Ipriflavon: 1508 ng/mL
physchem; 60 min, distilled water
  Concentration of dissolved Ipriflavon: 1621 ng/mL
physchem; 90 min, distilled water
  Concentration of dissolved Ipriflavon: 1525 ng/mL
physchem; 120 min, distilled water
  Concentration of dissolved Ipriflavon: 1482 ng/mL
physchem; distilled water, water
  solubility: ~1.5 µg/mL (≈ 5.35 µM)
physchem; free active ingredient
  time to reach the saturation value: 40 to 50 min
[2]; in vivo, po, 25 mg/kg, 10.2 min
  Plasma-level of unchanged Ipriflavon: 0 µg/mL
[2]; in vivo, po, 25 mg/kg, 30 min
  Plasma-level of unchanged Ipriflavon: 0 µg/mL
[2]; in vivo, po, 25 mg/kg, 60 min
  Plasma-level of unchanged Ipriflavon: 0 µg/mL
[2]; in vivo, po, 25 mg/kg, 120 min
  Plasma-level of unchanged Ipriflavon: 0 µg/mL
[2]; in vivo, po, 25 mg/kg, 2 h
  Plasma-level of unchanged Ipriflavon: 0.095 µg/mL
[2]; in vivo, po, 25 mg/kg, 240 min
  Plasma-level of unchanged Ipriflavon: 0 µg/mL
[2]; [10]
  concentration at 2 h: 78 ng/mL
  concentration at 4 h: 41 ng/mL
[2]; p.o.
  detection of unchanged Ipriflavon in plasma: can be detected only in few periods (at 2 and 4 hours)
[3]
  plasma level of main metabolite: 200 to 1000 ng/mL
[4]
  Plasma-level of unchanged Ipriflavon: 0 µg/mL
[5]
  Plasma-level of main metabolite (7-hydoxy-isoflavon): 0 µg/mL
[6]
  solubility in water: 1 to 2 µg/mL
[7]; beagle dogs
  HPLC analysis of the blood: metabolites thereof (7-hydroxy-isoflavon as main metabolite) appear in the blood
[7]; dog, in vivo
  radioactive material administered discharged with the urine: 12%
[8]; dog, in vivo, po
  resorption of the main metabolite: 152 ng·h/mL
[8]; dogs, oral
  Ipriflavon in the blood: cannot be detected in the blood

## O=c1c(-c2ccccc2)coc2cc(O)ccc12 [7-hydroxy-isoflavon]
[9]
  quantity of main metabolite of the total quantity of the metabolite: 50-55%
